From ChEMBL document CHEMBL1629682, “Nitazoxanide inhibits biofilm formation by Staphylococcus epidermidis by blocking accumulation on surfaces” (Antimicrob Agents Chemother, 2010)
Converted amounts (≈) assume the structure as drawn. The source made the active and inactive calls. No cut-off for these calls is given here.

Key:
[1] = Aqueous solubility of the compound; format: physicochemical
[2] = Plasma protein binding in healthy volunteers at […], po administered as single dose; format: ADME, organism-based; set-up: route oral; conditions: human, read-out: PPB (converted)
[3] = system: Staphylococcus epidermidis; experiment: Antimicrobial activity against Staphylococcus epidermidis 9142 at 1 to 5 ug/ml by microplate assay; format: functional, organism-based
[4] = system: Staphylococcus epidermidis; experiment: Antimicrobial activity against Staphylococcus epidermidis 9142 under aerobic condition by microdilution method; format: functional, organism-based
[5] = system: Staphylococcus epidermidis; experiment: Antimicrobial activity against Staphylococcus epidermidis 5179 under aerobic condition by microdilution method; format: functional, organism-based
[6] = system: Staphylococcus epidermidis; experiment: Antimicrobial activity against Staphylococcus epidermidis CAV1005 under aerobic condition by microdilution method; format: functional, organism-based
[7] = system: Staphylococcus epidermidis; experiment: Antimicrobial activity against Staphylococcus epidermidis 9142 by microdilution method; format: functional
[8] = system: Staphylococcus epidermidis; experiment: Antimicrobial activity against Staphylococcus epidermidis 5179 by microdilution method; format: functional
[9] = system: Staphylococcus epidermidis; experiment: Antimicrobial activity against Staphylococcus epidermidis CAV1005 by microdilution method; format: functional
[10] = system: Staphylococcus epidermidis; experiment: Antimicrobial activity against Staphylococcus epidermidis 9142 at 25 ug/ml under aerobic condition by microdilution method; format: functional, organism-based
[11] = system: Staphylococcus epidermidis; experiment: Antimicrobial activity against Staphylococcus epidermidis 5179 at 25 ug/ml under aerobic condition by microdilution method; format: functional, organism-based
[12] = system: Staphylococcus epidermidis; experiment: Antimicrobial activity against Staphylococcus epidermidis CAV1005 at 25 ug/ml under aerobic condition by microdilution method; format: functional, organism-based
[13] = system: Staphylococcus haemolyticus; experiment: Antimicrobial activity against Staphylococcus haemolyticus S33208 assessed as inhibition of biofilm formation after 24 hrs by crystal violet staining; format: functional, organism-based
[14] = system: Staphylococcus epidermidis; experiment: Antimicrobial activity against Staphylococcus epidermidis CAV1005 assessed as inhibition of biofilm formation after 24 hrs by microdilution method; format: functional; conditions: CAV1005, 24 h
Staphylococcus hominis = experiment: Antimicrobial activity against Staphylococcus hominis F13532 assessed as inhibition of biofilm formation after 24 hrs by microdilution method; format: functional; conditions: F13532, 24 h
[15] = system: Staphylococcus epidermidis; experiment: Antimicrobial activity against Staphylococcus epidermidis 9142 assessed as growth inhibition at 8 ug/ml by microdilution method; format: functional, organism-based
[16] = system: Staphylococcus haemolyticus; experiment: Antimicrobial activity against Staphylococcus haemolyticus S33208 assessed as growth inhibition at 8 ug/ml by microdilution method; format: functional, organism-based
[17] = system: Staphylococcus epidermidis; experiment: Antimicrobial activity against Staphylococcus epidermidis 9142 assessed as growth inhibition at 16 ug/ml by microdilution method; format: functional, organism-based
[18] = system: Staphylococcus haemolyticus; experiment: Antimicrobial activity against Staphylococcus haemolyticus S33208 assessed as growth inhibition at 16 ug/ml by microdilution method; format: functional, organism-based
[19] = system: Staphylococcus epidermidis; experiment: Antimicrobial activity against biofilm-positive Staphylococcus epidermidis clinical isolate ICS1 assessed as inhibition of biofilm formation after 16 hrs by crystal violet staining; format: functional, organism-based
[20] = system: Staphylococcus epidermidis; experiment: Antimicrobial activity against biofilm-positive Staphylococcus epidermidis clinical isolate ICS2 assessed as inhibition of biofilm formation after 16 hrs by crystal violet staining; format: functional, organism-based
[21] = system: Staphylococcus epidermidis; experiment: Antimicrobial activity against biofilm-positive Staphylococcus epidermidis clinical isolate ICS3 assessed as inhibition of biofilm formation after 16 hrs by crystal violet staining; format: functional, organism-based
[22] = system: Staphylococcus epidermidis; experiment: Antimicrobial activity against biofilm-positive Staphylococcus epidermidis clinical isolate ICS4 assessed as inhibition of biofilm formation after 16 hrs by crystal violet staining; format: functional, organism-based
[23] = system: Staphylococcus epidermidis; experiment: Antimicrobial activity against biofilm-positive Staphylococcus epidermidis clinical isolate ICS5 assessed as inhibition of biofilm formation after 16 hrs by crystal violet staining; format: functional, organism-based
[24] = system: Staphylococcus epidermidis; experiment: Antimicrobial activity against Staphylococcus epidermidis clinical isolate 5179-R1 derived from PNAG negative, icaA::IS257 mutant 5179 strain produces a proteinaceous biofilm dependent on a truncated 140-kDa isoform of Aap assessed as inhibition of biofilm formation after 16 hrs by crystal violet staining; format: functional, organism-based
[25] = system: Staphylococcus epidermidis; experiment: Antimicrobial activity against biofilm-positive Staphylococcus epidermidis clinical isolate ICS1 by microdilution method; format: functional, organism-based
[26] = system: Staphylococcus epidermidis; experiment: Antimicrobial activity against biofilm-positive Staphylococcus epidermidis clinical isolate ICS2 by microdilution method; format: functional, organism-based
[27] = system: Staphylococcus epidermidis; experiment: Antimicrobial activity against biofilm-positive Staphylococcus epidermidis clinical isolate ICS3 by microdilution method; format: functional, organism-based
[28] = system: Staphylococcus epidermidis; experiment: Antimicrobial activity against biofilm-positive Staphylococcus epidermidis clinical isolate ICS4 by microdilution method; format: functional, organism-based
[29] = system: Staphylococcus epidermidis; experiment: Antimicrobial activity against biofilm-positive Staphylococcus epidermidis clinical isolate ICS5 by microdilution method; format: functional, organism-based
[30] = system: Staphylococcus epidermidis; experiment: Antimicrobial activity against Staphylococcus epidermidis clinical isolate 5179-R1 derived from PNAG negative, icaA::IS257 mutant 5179 strain produces a proteinaceous biofilm dependent on a truncated 140-kDa isoform of Aap by microdilution method; format: functional, organism-based
[31] = system: Staphylococcus epidermidis; experiment: Antimicrobial activity against Staphylococcus epidermidis 9142 assessed as inhibition of bacterial accumulation on catheters after 24 hrs by catheter adherence model; format: functional, organism-based
[32] = system: Staphylococcus epidermidis; experiment: Antimicrobial activity against Staphylococcus epidermidis 9142 assessed as inhibition of bacterial primary attachment to plastics during 3 hrs at 15 ug/ml by microscopic analysis; format: functional, organism-based
[33] = system: Staphylococcus epidermidis; experiment: Antimicrobial activity against Staphylococcus epidermidis 9142 assessed as inhibition of bacterial primary attachment to plastics at 15 ug/ml under shaking condition for 3 hrs by microscopic analysis; format: functional, organism-based
[34] = system: Staphylococcus epidermidis; experiment: Antimicrobial activity against Staphylococcus epidermidis 9142 assessed as inhibition of bacterial attachment to plastics at 15 ug/ml under static condition for 3 hrs by microscopic analysis; format: functional, organism-based
[35] = system: Staphylococcus epidermidis; experiment: Antimicrobial activity against Staphylococcus epidermidis 9142 assessed as inhibition of bacterial attachment to plastics at 15 ug/ml under static condition for 3 hrs by microscopic analysis in presence of 10 uM Zn ions; format: functional, organism-based
[36] = system: Staphylococcus epidermidis; experiment: Antimicrobial activity against Staphylococcus epidermidis 9142 assessed as inhibition of bacterial accumulation on catheters treated for 12 hrs post biofilm formation measured after 24 hrs by crystal voilet staining; format: functional, organism-based
[37] = system: Staphylococcus epidermidis; experiment: Antimicrobial activity against Staphylococcus epidermidis 9142 expressing surface protein Aap assessed as inhibition of biofilm formation at 12.5 ug/ml by spectrophotometry in presence of Zn ions; format: functional, organism-based
[38] = system: Staphylococcus epidermidis; experiment: Antimicrobial activity against Staphylococcus epidermidis 9142 expressing surface protein Aap assessed as inhibition of biofilm formation at 12.5 ug/ml by spectrophotometry in presence of EDTA; format: functional, organism-based
[39] = system: Staphylococcus epidermidis; experiment: Antimicrobial activity against Staphylococcus epidermidis 9142 expressing surface protein Aap assessed as inhibition of biofilm formation at 12.5 ug/ml by spectrophotometry in presence of calcium ions; format: functional, organism-based
[40] = system: Staphylococcus epidermidis; experiment: Antimicrobial activity against Staphylococcus epidermidis 9142 expressing surface protein Aap assessed as inhibition of biofilm formation at 12.5 ug/ml by spectrophotometry in presence of magnesium ions; format: functional, organism-based
[41] = system: Staphylococcus epidermidis; experiment: Antimicrobial activity against Staphylococcus epidermidis 9142 expressing surface protein Aap assessed as inhibition of bacterial growth at 12.5 ug/ml by spectrophotometry in presence of 10 uM Zn ions; format: functional, organism-based
[42] = system: Staphylococcus epidermidis; experiment: Antimicrobial activity against Staphylococcus epidermidis 9142 expressing surface protein Aap by microdilution method in presence of 10 uM Zn ions; format: functional
[43] = system: Staphylococcus epidermidis; experiment: Antimicrobial activity against Staphylococcus epidermidis 9142 expressing surface protein Aap assessed as inhibition of bacterial growth at 12.5 ug/ml after 16 hrs by spectrophotometry in presence of 10 uM Zn ions; format: functional, organism-based
[44] = system: Staphylococcus epidermidis; experiment: Antimicrobial activity against Staphylococcus epidermidis 9142 expressing surface protein Aap up to 10 hrs by microdilution method in presence of 10 uM Zn ions; format: functional, organism-based
[45] = system: Staphylococcus epidermidis; experiment: Antimicrobial activity against Staphylococcus epidermidis 9142 at 25 ug/ml by microdilution method; format: functional, organism-based
[46] = system: Staphylococcus epidermidis; experiment: Antimicrobial activity against Staphylococcus epidermidis 9142 assessed as inhibition of bacterial attachment to plastics at 10 ug/ml under static condition for 3 hrs by microscopic analysis; format: functional, organism-based
[47] = system: Staphylococcus epidermidis; experiment: Antimicrobial activity against Staphylococcus epidermidis 9142 under microaeration condition at 10 ug/ml by microdilution method; format: functional, organism-based
[48] = system: Staphylococcus epidermidis; experiment: Antimicrobial activity against Staphylococcus epidermidis 5179 under microaeration condition at 10 ug/ml by microdilution method; format: functional, organism-based
[49] = system: Staphylococcus epidermidis; experiment: Antimicrobial activity against Staphylococcus epidermidis CAV1005 under microaeration condition at 10 ug/ml by microdilution method; format: functional, organism-based
[50] = system: Staphylococcus epidermidis; experiment: Antimicrobial activity against Staphylococcus epidermidis 9142 assessed as inhibition of biofilm formation after 24 hrs by crystal violet staining; format: functional, organism-based

In the case of `Cl.NCCOc1ccccc1C(=O)Nc1ncc([N+](=O)[O-])s1`, the solubility [1] is reported as 400 µg/mL.

With `O=C(Nc1ncc([N+](=O)[O-])s1)c1ccccc1O` [TIZOXANIDE] the fraction unbound [2] was 0.025, the Activity [3] was “Active” and the Activity [4] was “Dose-dependent effect”. The Activity [5] was “Dose-dependent effect”, the Activity [6] was “Dose-dependent effect” and the MIC [7] was 8 µg/mL (≈ 30.2 µM). The MIC [8] was 8 µg/mL (≈ 30.2 µM), the MIC [9] was 8 µg/mL (≈ 30.2 µM) and the Activity [10] was “Active”. For the same molecule, the Activity [11] was “Active” and the Activity [12] was “Active”.

With `CC(=O)Oc1ccccc1C(=O)Nc1ncc([N+](=O)[O-])s1` [NITAZOXANIDE] the Activity [13] was “Dose-dependent effect”, the MIC [14] was greater than 32 µg/mL and the MIC (Staphylococcus hominis) was greater than 32 µg/mL. The Activity [15] was “Active”, the Activity [16] was “Active” and the Activity [17] was “Active”. The Activity [18] was “Active”, the inhibition [19] was “Active” and the inhibition [20] was “Active”. For the same molecule, the inhibition [21] was “Active”, the inhibition [22] was “Active” and the inhibition [23] was “Active”. The inhibition [24] was “Active”, the IC50 [25] was 1 µg/mL (≈ 3.25 µM) and the MIC [25] was 16 µg/mL (≈ 52.1 µM). The IC50 [26] was 1 µg/mL (≈ 3.25 µM), the MIC [26] was 16 µg/mL (≈ 52.1 µM) and the IC50 [27] was 1 µg/mL (≈ 3.25 µM). For the same molecule, the MIC [27] was 16 µg/mL (≈ 52.1 µM), the IC50 [28] was 1 µg/mL (≈ 3.25 µM) and the MIC [28] was 16 µg/mL (≈ 52.1 µM). The IC50 [29] was 1 µg/mL (≈ 3.25 µM), the MIC [29] was 16 µg/mL (≈ 52.1 µM) and the IC50 [30] was 1 µg/mL (≈ 3.25 µM). For the same molecule, the MIC [30] was 16 µg/mL (≈ 52.1 µM), the Activity [31] was “Dose-dependent effect” and the Activity [32] was “Active”. For the same molecule, the Activity [33] was “Active”, the Activity [34] was “Active” and the Activity [35] was “Active”. The Activity [36] was “inactive”, the Activity [37] was “inactive” and the Activity [38] was “inactive”. The Activity [39] was “Active”, the Activity [40] was “Active” and the Activity [41] was “Active”. For the same molecule, the MIC [42] was 16 µg/mL, the Activity [43] was “inactive” and the Activity [44] was “Active”. The Activity [45] was “Active”, the Activity [3] was “Active” and the Activity [46] was “Active”. For the same molecule, the Activity [4] was “Dose-dependent effect”, the Activity [5] was “Dose-dependent effect” and the Activity [6] was “Dose-dependent effect”. It also gave an MIC [7] of 8 µg/mL (≈ 26 µM), an MIC [8] of 8 µg/mL (≈ 26 µM) and an MIC [9] of 8 µg/mL (≈ 26 µM). For the same molecule, the Activity [10] was “Active”, the Activity [11] was “Active” and the Activity [12] was “Active”. For the same molecule, the Activity [47] was “Active”, the Activity [48] was “Active” and the Activity [49] was “Active”. For the same molecule, the Activity [50] was “Dose-dependent effect”.
